Measurements published in ChEMBL document CHEMBL2169778, “Small molecule inhibitors of signal transducer and activator of transcription 3 (Stat3) protein” (J Med Chem, 2012).
Where a SMILES comes first, the peptide text is derived from it. [ ]: non-standard residue; d: D form. The star is where a group is joined. Pro(3S,4R-methano) = O=C(O)[C@H]1NC[C@@H]2C[C@@H]21; pY = N[C@@H](Cc1ccc(OP(=O)(O)O)cc1)C(=O)O; Hydrocinnamoyl = O=C(CCc1ccccc1)*; NHBn = c1ccc(CN*)cc1

Assays:
[1] = biological target: T1, Signal transducer and activator of transcription 3 (Homo sapiens, UniProt P40763); assay: Inhibition of STAT3 expressed in human U3A cells after 1 hr by luciferase reporter gene assay; format: cell-based
[2] = biological target: T1, Signal transducer and activator of transcription 3; assay: Inhibition of STAT3 in human MDA-MB-435 cells at 20 uM after 48 hrs by luciferase reporter gene assay relative to untreated control; format: cell-based
[3] = biological target: T1, Signal transducer and activator of transcription 3; assay: Inhibition of STAT3 SH2 domain assessed as inhibition of STAT3 SH2-phosphotyrosine interaction after 15 mins by fluorescence polarization assay
HepG2 = assay: Cytotoxicity against human HepG2 cells with intact TGFbeta pathway assessed as growth inhibition at 250 uM after 72 hrs by MTT assay; format: functional; conditions: HepG2, 72 h, read-out: GI
SNU-449 = assay: Cytotoxicity against human SNU449 cells with intact TGFbeta pathway assessed as growth inhibition at 250 uM after 72 hrs by MTT assay; format: functional; conditions: SNU-449, 72 h, read-out: GI
[4] = Cytotoxicity against human SNU182 cells with impaired TGFbeta pathway assessed as growth inhibition at 250 uM after 72 hrs by MTT assay; format: functional, cell-based; conditions: SNU-182
[5] = Cytotoxicity against human PLC/PRF/5 cells with intact TGFbeta pathway assessed as growth inhibition at 250 uM after 72 hrs by MTT assay; format: functional, cell-based
SNU-475 = assay: Cytotoxicity against human SNU475 cells with impaired TGFbeta pathway assessed as growth inhibition at 250 uM after 72 hrs by MTT assay; format: functional; conditions: SNU-475, 72 h, read-out: GI
Huh-7 = assay: Cytotoxicity against human HuH7 cells with impaired TGFbeta pathway assessed as growth inhibition at 250 uM after 72 hrs by MTT assay; format: functional; conditions: Huh-7, 72 h, read-out: GI
SNU-398 = assay: Cytotoxicity against human SNU398 cells with impaired TGFbeta pathway assessed as growth inhibition at 250 uM after 72 hrs by MTT assay; format: functional; conditions: SNU-398, 72 h, read-out: GI
[6] = biological target: T2, Signal transducer and activator of transcription 3 (Mus musculus, UniProt P42227); assay: Inhibition of STAT3 dimerization in v-Src transformed mouse NIH/3T3 cells overexpressing human EGFR assessed as suppression of STAT3-DNA interaction in nucleus after 30 mins by EMSA; format: cell-based, NIH3T3
[7] = biological target: T3, Signal transducer and activator of transcription 1-alpha/beta (Homo sapiens, UniProt P42224); assay: Inhibition of STAT1 SH2 domain assessed as inhibition of STAT1 SH2-phosphotyrosine interaction by AlphaScreen assay
T3 sequence (P42224 whole entry): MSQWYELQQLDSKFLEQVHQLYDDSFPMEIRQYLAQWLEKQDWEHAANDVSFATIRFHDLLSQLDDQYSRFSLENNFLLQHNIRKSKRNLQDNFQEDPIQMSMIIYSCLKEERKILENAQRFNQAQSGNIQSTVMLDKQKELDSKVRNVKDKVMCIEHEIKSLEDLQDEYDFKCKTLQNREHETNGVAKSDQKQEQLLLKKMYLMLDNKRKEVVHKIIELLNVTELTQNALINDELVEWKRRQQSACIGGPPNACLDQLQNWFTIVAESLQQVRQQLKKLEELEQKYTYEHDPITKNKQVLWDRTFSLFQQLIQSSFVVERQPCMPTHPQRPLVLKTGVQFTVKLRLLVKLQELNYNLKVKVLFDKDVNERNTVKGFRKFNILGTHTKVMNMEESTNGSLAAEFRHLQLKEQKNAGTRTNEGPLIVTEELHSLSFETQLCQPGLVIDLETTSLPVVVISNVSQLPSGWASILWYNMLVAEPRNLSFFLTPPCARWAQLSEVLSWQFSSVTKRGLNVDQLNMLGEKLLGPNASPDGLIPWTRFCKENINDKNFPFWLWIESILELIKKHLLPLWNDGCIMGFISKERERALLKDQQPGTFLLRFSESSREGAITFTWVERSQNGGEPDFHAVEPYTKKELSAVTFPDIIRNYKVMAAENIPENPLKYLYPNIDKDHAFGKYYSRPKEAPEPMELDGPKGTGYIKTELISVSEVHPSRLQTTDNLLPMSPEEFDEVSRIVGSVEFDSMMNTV

[8] = biological target: T1, Signal transducer and activator of transcription 3; assay: Inhibition of STAT3 SH2 domain assessed as inhibition of STAT3 SH2-phosphotyrosine interaction by AlphaScreen assay
[9] = biological target: T1, Signal transducer and activator of transcription 3; assay: Inhibition of recombinant STAT3 assessed as inhibition of STAT3-phosphododecapeptide interaction by SPR analysis
[10] = biological target: T1, Signal transducer and activator of transcription 3; assay: Inhibition of IL6-mediated STAT3 phosphorylation in human HepG2 cells preincubated for 1 hr prior to IL6 challenge measured after 30 mins by immunoblot analysis; format: cell-based
[11] = Binding affinity to full length STAT3alpha by fluorescence polarization assay
[12] = biological target: Tyrosine-protein kinase JAK2 (Homo sapiens) (UniProt O60674); conditions: at 5 µM
Description: Inhibition of JAK2 at 5 uM by high throughput assay

MDA-MB-231 = assay: Cytotoxicity against human MDA-MB-231 cells harboring constitutively active STAT3 after 24 to 144 hrs by trypan blue-staining based phase contrast microscopy; format: functional, cell-based
NIH3T3 = assay: Cytotoxicity against mouse NIH/3T3 cells without constitutively active STAT3 after 24 to 144 hrs by trypan blue-staining based phase contrast microscopy; format: cell-based
PANC-1 = assay: Cytotoxicity against human PANC1 cells harboring constitutively active STAT3 after 24 to 144 hrs by trypan blue-staining based phase contrast microscopy; format: functional, cell-based
[13] = biological target: T3, Signal transducer and activator of transcription 1-alpha/beta; assay: Inhibition of STAT1 SH2 domain by fluorescence polarization assay
[14] = Cytotoxicity against mouse TE71 without constitutively active STAT3 after 24 to 144 hrs by trypan blue-staining based phase contrast microscopy
[15] = biological target: T2, Signal transducer and activator of transcription 3; assay: Binding affinity to STAT3 SH2 in v-Src transformed mouse NIH/3T3 cells overexpressing human EGFR; format: cell-based, NIH3T3
[16] = Cytotoxicity against HPDEC without constitutively active STAT3 after 24 to 144 hrs by trypan blue-staining based phase contrast microscopy; conditions: Homo sapiens
[17] = biological target: T1, Signal transducer and activator of transcription 3; assay: Inhibition of STAT3 SH2 domain using 5-carboxyfluorescein-GY(PO3H2)LPQTV-NH2 as substrate preincubated for 60 mins prior to substrate addition by fluorescence polarization assay

T2 sequence (P42227 whole entry, the tested form may be a part): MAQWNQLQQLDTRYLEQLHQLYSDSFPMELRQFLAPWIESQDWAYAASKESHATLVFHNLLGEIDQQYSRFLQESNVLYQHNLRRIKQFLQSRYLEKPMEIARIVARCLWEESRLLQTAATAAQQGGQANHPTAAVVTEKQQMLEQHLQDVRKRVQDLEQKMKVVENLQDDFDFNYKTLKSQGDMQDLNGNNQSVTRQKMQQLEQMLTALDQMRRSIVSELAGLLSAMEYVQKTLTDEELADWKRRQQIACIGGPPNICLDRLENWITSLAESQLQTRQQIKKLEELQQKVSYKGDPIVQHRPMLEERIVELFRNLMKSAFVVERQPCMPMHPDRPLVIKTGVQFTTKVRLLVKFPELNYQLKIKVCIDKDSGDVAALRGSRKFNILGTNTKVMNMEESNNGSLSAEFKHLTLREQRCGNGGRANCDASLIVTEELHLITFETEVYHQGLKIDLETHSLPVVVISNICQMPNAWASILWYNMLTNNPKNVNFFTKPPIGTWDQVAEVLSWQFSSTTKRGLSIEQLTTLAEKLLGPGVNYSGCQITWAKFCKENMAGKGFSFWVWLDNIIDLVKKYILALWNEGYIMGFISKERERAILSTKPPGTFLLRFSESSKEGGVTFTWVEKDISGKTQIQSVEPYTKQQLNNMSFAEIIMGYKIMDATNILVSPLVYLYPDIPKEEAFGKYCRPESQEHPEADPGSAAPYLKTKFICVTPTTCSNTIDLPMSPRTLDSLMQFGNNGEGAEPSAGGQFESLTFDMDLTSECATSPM
T1 sequence (P40763 whole entry): as the sequence (P42227 whole entry, the tested form may be a part) above, with D760E counted along it
Tyrosine-protein kinase JAK2 (Homo sapiens), sequence (O60674 whole entry): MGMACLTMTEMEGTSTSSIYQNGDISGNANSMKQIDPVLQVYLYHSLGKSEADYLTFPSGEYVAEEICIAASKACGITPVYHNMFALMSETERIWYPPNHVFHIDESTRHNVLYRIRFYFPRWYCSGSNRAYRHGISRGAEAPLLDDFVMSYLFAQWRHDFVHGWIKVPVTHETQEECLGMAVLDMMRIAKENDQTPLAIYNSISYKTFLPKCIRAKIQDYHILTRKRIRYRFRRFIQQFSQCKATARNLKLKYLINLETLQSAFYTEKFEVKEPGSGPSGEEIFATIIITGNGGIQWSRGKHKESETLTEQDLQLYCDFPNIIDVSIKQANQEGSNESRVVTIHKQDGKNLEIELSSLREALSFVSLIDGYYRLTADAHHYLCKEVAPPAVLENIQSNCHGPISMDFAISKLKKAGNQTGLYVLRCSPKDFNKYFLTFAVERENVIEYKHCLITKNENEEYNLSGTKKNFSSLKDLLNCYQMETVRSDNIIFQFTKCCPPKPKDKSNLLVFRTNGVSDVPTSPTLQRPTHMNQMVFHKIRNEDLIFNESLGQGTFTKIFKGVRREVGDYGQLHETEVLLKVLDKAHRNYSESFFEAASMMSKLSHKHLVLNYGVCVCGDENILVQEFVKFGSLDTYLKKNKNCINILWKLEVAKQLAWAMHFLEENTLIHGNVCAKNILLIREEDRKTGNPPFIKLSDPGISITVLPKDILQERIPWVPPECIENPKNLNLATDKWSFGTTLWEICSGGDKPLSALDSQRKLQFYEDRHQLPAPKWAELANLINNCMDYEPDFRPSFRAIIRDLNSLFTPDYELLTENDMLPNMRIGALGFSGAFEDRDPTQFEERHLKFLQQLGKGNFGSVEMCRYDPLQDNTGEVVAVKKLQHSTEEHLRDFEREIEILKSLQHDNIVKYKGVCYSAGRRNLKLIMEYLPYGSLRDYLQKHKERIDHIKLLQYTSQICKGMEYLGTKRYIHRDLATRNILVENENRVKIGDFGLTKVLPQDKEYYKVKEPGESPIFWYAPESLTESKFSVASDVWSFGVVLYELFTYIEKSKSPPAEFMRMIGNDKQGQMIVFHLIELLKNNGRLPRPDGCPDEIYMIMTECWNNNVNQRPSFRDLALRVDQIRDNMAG

SMILES: O=C(N/N=C/c1ccc([N+](=O)[O-])o1)c1ccc(O)cc1 [NIFUROXAZIDE]
- EC50 [1]: 3 µM

SMILES: C[C@@H]1CC(=O)c2c(ccc3c2C(=O)c2cccc(O)c2C3=O)C1
- fold change (FC) [2]: 5

SMILES: Cc1ccc(S(=O)(=O)OCC(=O)N(Cc2ccc(C3CCCCC3)cc2)c2ccc(C(=O)O)c(O)c2)cc1
- Ki [3]: 50 µM

SMILES: Cc1ccc(S(=O)(=O)N(C)CC(=O)N(Cc2ccc(C3CCN(c4ccc(C#N)cc4)CC3)cc2)c2ccc(C(=O)O)c(O)c2)cc1
- Ki [3]: 18.7 µM

SMILES: Cc1ccc(S(=O)(=O)OCC(=O)Nc2ccc(C(=O)O)c(O)c2)cc1
- inhibition of growth at 250 µM (HepG2): 20%
- inhibition of growth at 250 µM (SNU-449): 20%
- growth inhibition (GI) [4]: 80%
- growth inhibition (GI) [5]: 20%
- inhibition of growth at 250 µM (SNU-475): 80%
- inhibition of growth at 250 µM (Huh-7): 80%
- inhibition of growth at 250 µM (SNU-398): 80%

SMILES: CCCCCCNC(=O)c1nc(-c2cccc3ccccc23)sc1Cc1ccc(OP(=O)(O)O)cc1
- IC50 [6]: 25 µM

SMILES: C1=Cc2nc1cc1ccc([nH]1)c(-c1ccccc1)c1nc(cc3ccc([nH]3)c2-c2ccccc2)C=C1
- IC50 [7]: 10 µM
- IC50 [8]: 0.28 µM

SMILES: O=C(O)c1ccc(/C=C/C(=O)c2ccc3c(c2)OCCO3)cc1
- IC50 [9]: 447 µM
- IC50 [10]: 91 µM

SMILES: COc1cccc(NC(=O)c2nc(-c3ccccc3)sc2Cc2ccc(OP(=O)(O)O)cc2)c1
- IC50 [6]: 28 µM

SMILES: COc1cccc(NC(=O)c2nc(-c3ccccc3)oc2Cc2ccc(OP(=O)(O)O)cc2)c1
- IC50 [6]: 90 µM

SMILES: O=C(Nc1ccc(C2CCCCC2)cc1)c1nc(-c2ccccc2)oc1Cc1ccc(OP(=O)(O)O)cc1
- IC50 [6]: 33 µM

SMILES: CC(C)C[C@H](NC(=O)[C@H](Cc1ccc(OP(=O)(O)O)cc1)NC(=O)CCc1ccccc1)C(=O)N1C[C@@H]2C[C@@H]2[C@H]1C(=O)N[C@@H](CCC(N)=O)C(=O)NCc1ccccc1 (Hydrocinnamoyl-[pY]L[Pro(3S,4R-methano)]Q-NHBn)
- Ki [11]: 0.125 µM

SMILES: COc1ccc(/C=C/C(=O)C(C)(C)C(=O)/C=C/c2ccc(OC)c(OC)c2)cc1OC
- inhibition [12]: 60%

SMILES: Cc1ccc(S(=O)(=O)N(C)CC(=O)N(Cc2ccc(C3CCCCC3)cc2)c2ccc(C(=O)O)c(O)c2)cc1
- IC50 (MDA-MB-231): 37 µM
- IC50 (NIH3T3): > 200 µM
- IC50 (PANC-1): 48 µM
- Ki [13]: ≥ 50 µM
- IC50 [14]: > 200 µM
- Kd [15]: 2.74 µM
- IC50 [16]: > 200 µM

SMILES: CCCCCCNC(=O)c1nc(-c2cccc3ccccc23)oc1Cc1ccc(OP(=O)(O)O)cc1
- IC50 [6]: 58 µM

SMILES: O=[N+]([O-])c1ccc2c(c1)S(=O)(=O)C=C2
- IC50 [17]: 5.1 µM
